Key:
[1] = molecular target: D(2) dopamine receptor (Rattus norvegicus, UniProt P61169); experiment: Binding affinity against D-2 dopamine receptor in rat brain membranes using [3H](-)-sulpiride as radioligand.; type: cell membranes
[2] = molecular target: Glutamate NMDA receptor; experiment: Binding affinity against phencyclidine receptor in rat brain membranes using radioligand [3H]TCP.; type: cell membranes
[3] = molecular target: Muscarinic acetylcholine receptor; experiment: Binding affinity against muscarinic receptor in rat brain membranes using radioligand [H}QNB.; type: cell membranes
[4] = molecular target: Sigma 2 receptor; experiment: Binding affinity against sigma-2 receptor in rat liver using radioligand [3H]DTG in the presence of dextrallorphan.

Chain of D(2) dopamine receptor (P61169 whole entry): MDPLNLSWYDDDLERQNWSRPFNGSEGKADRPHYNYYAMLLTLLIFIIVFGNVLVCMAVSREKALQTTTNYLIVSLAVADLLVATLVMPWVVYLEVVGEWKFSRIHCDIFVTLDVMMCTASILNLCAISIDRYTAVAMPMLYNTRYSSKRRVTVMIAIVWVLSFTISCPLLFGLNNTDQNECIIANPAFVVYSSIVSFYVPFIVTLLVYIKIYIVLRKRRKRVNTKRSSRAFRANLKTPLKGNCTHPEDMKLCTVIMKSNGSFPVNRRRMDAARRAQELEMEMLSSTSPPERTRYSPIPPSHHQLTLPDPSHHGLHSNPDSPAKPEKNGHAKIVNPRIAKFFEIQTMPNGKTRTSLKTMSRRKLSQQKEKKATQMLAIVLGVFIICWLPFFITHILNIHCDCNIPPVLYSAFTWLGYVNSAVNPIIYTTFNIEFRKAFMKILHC

SMILES	Ki [1] [nM]	Ki [2] [nM]	Ki [3] [nM]	Ki [4] [nM]
O=C(NC1CCN(Cc2ccccc2)CC1)c1ccccc1I	63.4	> 100000	> 100000	29.6
O=C(NC1CCN(Cc2ccccc2)CC1)c1cccc(I)c1	24.8	> 100000	> 100000	84.6
O=C(NC1CCN(Cc2ccccc2)CC1)c1ccc(I)cc1	382	> 100000	> 100000	25.2
